Data as given in the supplement of paper PMC6965134.
± gives the standard deviation of the averaged measurements.

Experiment: TIMS collisional cross section (CCS, N2) of the lipid ion; higher = larger ion cross section
Details: ionization mode: positive, one isomer drawn

CCCCCCCC/C=C\CCCCCCCC(=O)OC[C@H](COC(=O)CCCCCCCCCCCCCCCCCCCCC)OC(=O)CCCCCCCCCCCCCCCCCC [TG 18:1_19:0_22:0] (ion (formula + adduct): [C62H118O6+NH4] 1+)
TIMS collisional cross section (sample type: Liver): 344.9 Å²

CCCCCCC/C=C\CCCCCCCC(=O)O[C@H](COC(=O)CCCCCCCCCCCCCCC)COP(=O)([O-])OCC[N+](C)(C)C [PC 16:0_17:1] (ion (formula + adduct): [C41H80NO8P+H] 1+)
TIMS collisional cross section (sample type: HeLa): 285.8 Å²

CCCCCC/C=C\CCCCCCCC(=O)OC[C@@H](COC(=O)CCCCCCCCCCC)OC(=O)CCCCCCCCCCCCC [TG 12:0_14:0_16:1] (ion (formula + adduct): [C45H84O6+NH4] 1+)
TIMS collisional cross section (sample type: HeLa): 292.8 Å²

CCCCC/C=C\C/C=C\CCCCCCCCCCCC(=O)OC[C@@H](COC(=O)CCCCCCCCCCCCCCCCC)OC(=O)CCCCCCCCCCCCCCCCCCCCC [TG 18:0_22:0_22:2] (ion (formula + adduct): [C65H122O6+NH4] 1+)
TIMS collisional cross section (sample type: plasma): 351 Å²

CCCCC/C=C\C/C=C\C/C=C\C/C=C\CCCC(=O)O[C@H](COC(=O)CCCCCCCCCCCCC)COP(=O)([O-])OCC[N+](C)(C)C [PC 14:0@_20:4] (ion (formula + adduct): [C42H76NO8P+H] 1+)
TIMS collisional cross section (sample type: plasma): 282 Å²

CCCCC/C=C\C/C=C\C/C=C\CCCCC(=O)O[C@H](COC(=O)CCCCCCC/C=C\CCCCCC)COP(=O)([O-])OCC[N+](C)(C)C [PC 16:1@_18:3] (ion (formula + adduct): [C42H76NO8P+H] 1+)
TIMS collisional cross section (sample type: HeLa): 279.2 Å²
TIMS collisional cross section (sample type: plasma): 280.6 Å²

CC/C=C\C/C=C\C/C=C\C/C=C\C/C=C\CCCC(=O)O[C@H](COC(=O)CCCCCCCCCCCCCCCCC)COP(=O)([O-])OCC[N+](C)(C)C [PC 18:0@_20:5] (ion (formula + adduct): [C46H82NO8P+H] 1+)
TIMS collisional cross section (sample type: Liver): 296.3 Å²
TIMS collisional cross section (sample type: plasma): 295.4 Å²

CCCCCCCCCCCCCC(=O)O[C@H](COC(=O)CCCCCCCCCCC)COP(=O)([O-])OCC[N+](C)(C)C [PC 12:0@_14:0] (ion (formula + adduct): [C34H68NO8P+H] 1+)
TIMS collisional cross section (sample type: HeLa): 266.9 Å²

CCCCCCC/C=C\CCCCCCCC(=O)OC[C@@H](COC(=O)CCCCCCCCCCCCCCC)OC(=O)CCCCCCCCCCCCCCCC [TG 16:0_17:0_17:1] (ion (formula + adduct): [C53H100O6+NH4] 1+)
TIMS collisional cross section (sample type: Liver): 317.9 Å²

CC/C=C\C/C=C\C/C=C\C/C=C\C/C=C\C/C=C\CCC(=O)OC[C@@H](COC(=O)CCCCCCC/C=C\C/C=C\CCCCC)OC(=O)CCCCCCC/C=C\C/C=C\C/C=C\CC [TG 18:2_18:3_22:6] (ion (formula + adduct): [C61H96O6+NH4] 1+)
TIMS collisional cross section (sample type: Liver): 324.9 Å²

CCCCC/C=C\C/C=C\C/C=C\C/C=C\CCCCCC(=O)OC[C@H](COP(=O)(O)OCCN)OC(=O)CCCCCCCCCCCCCCCCC [PE 22:4_18:0] (ion (formula + adduct): [C45H82NO8P+H] 1+)
TIMS collisional cross section (sample type: Liver): 289.7 Å²

CC/C=C\C/C=C\C/C=C\C/C=C\C/C=C\CCCCCC(=O)O[C@H](COC(=O)CCCCCCCCC/C=C\CCCCCC)COP(=O)([O-])OCC[N+](C)(C)C [PC 18:1@_22:5] (ion (formula + adduct): [C48H84NO8P+H] 1+)
TIMS collisional cross section (sample type: Liver): 297 Å²

CCCC/C=C\CCCCCCCC(=O)OC[C@H](COC(=O)CCCCCCC/C=C\CCCCCCCC)OC(=O)CCCCCCC/C=C\CCCCCC [TG 14:1_16:1_18:1] (ion (formula + adduct): [C51H92O6+NH4] 1+)
TIMS collisional cross section (sample type: HeLa): 307.85 ± 1.2 Å²
TIMS collisional cross section (sample type: Liver): 307.7 Å²
TIMS collisional cross section (sample type: plasma): 307 Å²

CCCCC/C=C\C/C=C\CCCCCCCC(=O)OC[C@@H](COC(=O)CCCCCCC/C=C\CCCCCCC)OC(=O)CCCCCCC/C=C\CCCCCCCC [TG 17:1_18:1_18:2] (ion (formula + adduct): [C56H100O6+NH4] 1+)
TIMS collisional cross section (sample type: HeLa): 320.8 Å²
TIMS collisional cross section (sample type: plasma): 320.6 Å²

CCCCCC/C=C\CCCCCCCC(=O)O[C@@H](COC(=O)CCCCCCC/C=C\CCCCCCC)COC(=O)CCCCCCCCCCCCCCC [TG 16:0_16:1_17:1] (ion (formula + adduct): [C52H96O6+NH4] 1+)
TIMS collisional cross section (sample type: plasma): 313.2 Å²

CCCCCCCC/C=C\CCCCCCCC(=O)O[C@H](COC(=O)CCCCCCCCCCCCCCC)COC(=O)CCCCCCCCCCCCCCCCCCCC [TG 16:0_18:1_21:0] (ion (formula + adduct): [C58H110O6+NH4] 1+)
TIMS collisional cross section (sample type: Liver): 333 Å²
TIMS collisional cross section (sample type: plasma): 333.1 Å²

CCCCC/C=C\CCCCCCCC(=O)O[C@H](COC(=O)CCCCCCCCCCCCCC)COC(=O)CCCCCCCCCCCCCCC [TG 15:0_15:1_16:0] (ion (formula + adduct): [C49H92O6+NH4] 1+)
TIMS collisional cross section (sample type: Liver): 305.9 Å²

CCCCCCCC/C=C\CCCCCCCCCC(=O)O[C@H](COC(=O)CCCCCCC/C=C\CCCCCCCC)COP(=O)(O)OCCN [PE 18:1_20:1@] (ion (formula + adduct): [C43H82NO8P+H] 1+)
TIMS collisional cross section (sample type: Liver): 285.5 Å²

CCCCCCCCCCCCCCC(=O)OC[C@@H](COC(=O)CCCCCCCCCCCCC)OC(=O)CCCCCCCCCCCCCC [TG 14:0_15:0_15:0] (ion (formula + adduct): [C47H90O6+NH4] 1+)
TIMS collisional cross section (sample type: Liver): 302 Å²

CC/C=C\C/C=C\C/C=C\C/C=C\C/C=C\C/C=C\CCC(=O)O[C@H](COC(=O)CCCCCCC/C=C\CCCCCC)COP(=O)([O-])OCC[N+](C)(C)C [PC 16:1_22:6] (ion (formula + adduct): [C46H78NO8P+H] 1+)
TIMS collisional cross section (sample type: Liver): 288.5 Å²

CCCCCC/C=C\CCCCCCCC(=O)O[C@H](COC(=O)CCCCCCCCCCCCC)COC(=O)CCCCCCCCCCCCCCCC [TG 14:0_16:1_17:0] (ion (formula + adduct): [C50H94O6+NH4] 1+)
TIMS collisional cross section (sample type: HeLa): 309.6 Å²
TIMS collisional cross section (sample type: plasma): 309 Å²

CC/C=C\C/C=C\C/C=C\C/C=C\C/C=C\C/C=C\CCC(=O)OC[C@H](COP(=O)(O)OCCN)OC(=O)CCCCCCC/C=C\CCCCCCCC [PE 22:6_18:1] (ion (formula + adduct): [C45H76NO8P+H] 1+)
TIMS collisional cross section (sample type: Liver): 281.4 Å²

CCCCCCCCCCCCCCCCCC(=O)OC[C@@H](COC(=O)CCCCCCCCCCCCCCC)OC(=O)CCCCCCCCCCCCCCCCC [TG 16:0_18:0_18:0] (ion (formula + adduct): [C55H106O6+NH4] 1+)
TIMS collisional cross section (sample type: Liver): 326.7 Å²
TIMS collisional cross section (sample type: plasma): 326.7 Å²

CCCCC/C=C\C/C=C\CCCCCCCCCC(=O)O[C@H](COC(=O)CCCCCCC/C=C\CCCCCCCC)COP(=O)([O-])OCC[N+](C)(C)C [PC 18:1_20:2] (ion (formula + adduct): [C46H86NO8P+H] 1+)
TIMS collisional cross section (sample type: HeLa): 295.9 Å²

CCCCCCCC/C=C\CCCCCCCC(=O)O[C@H](COC(=O)CCCCCCCCCCCCCCC)COP(=O)([O-])OCC[N+](C)(C)C [PC 16:0@_18:1] (ion (formula + adduct): [C42H82NO8P+H] 1+)
TIMS collisional cross section (sample type: HeLa): 289.15 ± 0.49 Å²
TIMS collisional cross section (sample type: Liver): 287.6 Å²
TIMS collisional cross section (sample type: plasma): 288.2 Å²

CCCCCC/C=C\CCCCCCCC(=O)O[C@@H](COC(=O)CCCCCCC/C=C\CCCCCCC)COC(=O)CCCCCCCCCCCCC [TG 14:0_16:1_17:1] (ion (formula + adduct): [C50H92O6+NH4] 1+)
TIMS collisional cross section (sample type: HeLa): 307.1 Å²
TIMS collisional cross section (sample type: plasma): 307.3 Å²

CCCCCC/C=C\CCCCCCCC(=O)OC[C@H](COC(=O)CCCCCCC/C=C\CCCCCCCC)OC(=O)CCCCCCC/C=C\CCCCCCC [TG 16:1_17:1_18:1] (ion (formula + adduct): [C54H98O6+NH4] 1+)
TIMS collisional cross section (sample type: HeLa): 316.5 Å²

CCCCC/C=C\C/C=C\CCCCCCCC(=O)OC[C@H](CO)OC(=O)CCCCCCCCCCCCCCCCCCCCC [DG 18:2_22:0_0:0] (ion (formula + adduct): [C43H80O5+NH4] 1+)
TIMS collisional cross section (sample type: Liver): 279.2 Å²

CCCCCCCC/C=C\CCCCCCCC(=O)O[C@H](CO/C=C\CCCCCCCCCCCCCCCC)COP(=O)(O)OCCN [PE P- 18:0@_18:1] (ion (formula + adduct): [C41H80NO7P+H] 1+)
TIMS collisional cross section (sample type: plasma): 281.4 Å²

CCCCC/C=C\C/C=C\C/C=C\C/C=C\CCCC(=O)OC[C@H](COP(=O)(O)OCCN)OC(=O)CCCCCCC/C=C\CCCCCCCC [PE 20:4_18:1] (ion (formula + adduct): [C43H76NO8P+H] 1+)
TIMS collisional cross section (sample type: HeLa): 279.1 Å²
TIMS collisional cross section (sample type: Liver): 280 ± 0.42 Å²

CCCCCCCCCCCCCCCCCC(=O)OC[C@H](COP(=O)(O)OCCN)OC(=O)CCCCCCCCCCCCCCCCC [PE 18:0_18:0] (ion (formula + adduct): [C41H82NO8P+Na] 1+)
TIMS collisional cross section (sample type: HeLa): 286.4 Å²
TIMS collisional cross section (sample type: Liver): 286.2 Å²

CCCCC/C=C\C/C=C\CCCCCCCC(=O)O[C@H](CO/C=C\CCCCCCCCCCCCCCCC)COP(=O)(O)OCCN [PE P- 18:0@_18:2] (ion (formula + adduct): [C41H78NO7P+H] 1+)
TIMS collisional cross section (sample type: Liver): 278 Å²

CCCCC/C=C\C/C=C\C/C=C\CCCCC(=O)O[C@H](COC(=O)CCCCCCC/C=C\C/C=C\CCCCC)COP(=O)([O-])OCC[N+](C)(C)C [PC 18:2@_18:3] (ion (formula + adduct): [C44H78NO8P+H] 1+)
TIMS collisional cross section (sample type: Liver): 284.9 Å²
